One test deals with topoisomerase I. Description: Amount of expression of topoisomerase I in whole cell extract by western blotting. The format is cell-based, human. Conditions: ordinary and glucose starvation condition; 2.5, 5, and 10 µM; FIG. 17(a). The procedure: The cell culture condition for both M phase-synchronized culture method and culture under the glucose starvation condition was as described in Example 1. M phase-synchronized cells were cultured in the culture medium, to which lactacystin of the final concentration 10 µM was added, or the culture medium, to which this was not added, as the proteasome inhibiting agent under the ordinary condition and the glucose starvation condition, respectively, for 13 hours. […] In order to examine sensitivity of cells against the topoisomerase I inhibiting agent, camptothecin (Yakult made), the drug was added to the culture medium to continue further culturing for 4 hours. Sensitivity of cells was measured by applying the colony formation method described in Example 1. On the other hand, the amount of expression of topoisomerase I that is the target molecule of camptothecin was measured by preparing the whole cell extract solution as described in Example 2 followed by the western blotting method. For reference, in measuring the amount of expression of topoisomerase I, regarding the proteasome inhibiting agents, clasto-lactacystin β lactone (Boston Biochem made), which is an activated form of lactacystin, was used in the final concentration of 2.5, 5, and 10 µM. Meanwhile, as the antibody against human topoisomerase I, a mouse monoclonal antibody established by Tsuruo et al. was used.

The next test concerns topoisomerase IIα. The experiment in a line: Amount of expression of topoisomerase IIα in whole cell extract by western blotting. Conditions: glucose starvation condition; 2.5, 5, and 10 µM; FIG. 17(b). The class given is cell-based, human. The text has this: Topoisomerase II inhibiting anticancer drug stabilizes a complex (cleavable complex) consisting of the DNA and topoisomerase IIα occurring in a catalytic reaction process of topoisomerase IIα to cause DNA damage. Therefore, cell-killing effect of the topoisomerase II-inhibiting anticancer drug depends on the amount of intracellular expression of topoisomerase IIα essential for formation of the cleavable complex. Then, the amount of expression of topoisomerase IIα in the cultured cancer cell under the glucose starvation and hypoxia environment that are found in the solid cancer and the effect of the proteasome inhibiting agent to the amount of expression were examined.
The culture condition of cells is same as that described in Example 1 including the M phase synchronous culture method and culture under the glucose starvation condition. Culture under hypoxia condition, that is found in the solid cancer, similar to glucose starvation was carried out using the culture medium (that prepared by adding 5% FBS to RPMI1640 culture medium) under the ordinary condition in a Gaspack 100 anaerobic system (Becton Dickinson made). Culture under the glucose starvation condition and hypoxia condition was carried out for 14 hours .
With the purpose to prepare a whole cell extract solution, cells culture under the above described condition were washed with an ice-cooled PBS twice and then, cells were removed from the culture dish by using a cell scraper (Sumitomo Bakelite made) for collection. Cells collected were precipitated by centrifugation and then, dissolved in an SDS sample buffer to collect as the extract solution from all cells. For reference, the composition of the SDS sample buffer was 10% v/v, glycerol, 5% 2-mercaptoethanol, 2% SDS (sodium lauryl sulfate), and 62.5 mM tris-hydrochloric acid (pH 6.8).
The amount of topoisomerase IIα in the extract solution from all cells was measured by the western blotting method. The extract solution from all cells containing a total protein quantity of 30 µg was put on an SDS polyacrylamide gel (4-20 Multigel: Daiichi Pure Chemicals K.K. made) and subjected to electrophoresis in an electrophoresis buffer (25 mM tris, 192 mM glycine, and 0.1% SDS) in a 40 mA constant current for 1 hour. Subsequently, blotting was carried out in 4°C blotting buffer (25 mM tris, 192 mM glycine, and 20% methanol) in a 50 V constant voltage for 12 hours to transfer a protein separated in the SDS polyacrylamide gel to a nitrocellulose membrane. This nitrocellulose membrane was soaked in a blocking buffer (0.1% Tween 20, 4% skim milk-added PBS) for 1 hour to carry out blocking. The nitrocellulose membrane blocked was soaked in a solution, that was prepared by adding anti-topoisomerase IIα antibody (Cambridge Research Biochemicals Corp. made) of the final concentration 1 µg/ml as the primary antibody to the blocking buffer solution, for 1 hour. The nitrocellulose membrane was washed with the blocking buffer three times (5 minutes once), and then, soaked in the solution, in which a 1/1000 volume of an antimouse antibody (Amersham Pharmacia Biotech made) labeled with horse radish peroxidase as a secondary antibody had been added to the blocking buffer, for 1 hour. The nitrocellulose membrane was washed with the blocking buffer three times (5 minutes once), and then, washed with the PBS, to which 0.1% Tween 20 was added, three times (5 minutes once). The nitrocellulose membrane after completion of antibody reaction and washing was treated with the ECL reagent (Amersham Pharmacia Biotech made) after a handling manual and a topoisomerase IIα-specific signal was detected on an X-OMAT™AR film (Kodakmade). For reference, steps after blotting was carried out in a room temperature. […]
The cell culture condition for both M phase-synchronized culture method and culture under the glucose starvation condition was as described in Example 1. […]
On the technique in general: In western blotting, separated proteins are transferred to a membrane and probed.

For test [1], the system named is human colon cancer cell HT29. Description: Anticancer therapy in human cancer cell-transplanted nude mouse model (size of tumor lump). The format is in vivo, nude mouse BALB/cAnNCrj-nu/nu. Conditions: Example 5; intraperitoneally three times every 4 days; etoposide 33 mg/kg, lactacystin 40 mg/kg; in combined use lactacystin 5 hours before etoposide; FIG. 11. The text has this: A human colon cancer cell HT29 was transplanted subcutaneously to a nude mouse to examine a therapeutic effect of combined use of lactacystin, the proteasome inhibiting agent, with etoposide, the anticancer drug targeting topoisomerase II.
As an experimental animal, the nude mouse BALB/cAnNCrj-nu/nu of 8-week old female (Charles River Laboratories product) was used. In order to form a tumor lump in the nude mouse, 1×10^7 HT29 cells was subcutaneously transplanted. After 8 to 10 days of transplanting, the tumor lump of HT29 cells grew to […] and at this point, the therapy was started. […]
The therapy was conducted by dividing the HT29 tumor-transplanted mice into 4 groups to assign 4 animals to 1 group as follows by administering intraperitoneally three times every 4 days: (1) control group untreated with saline, (2) etoposide 33 mg/kg, (3) lactacystin 40 mg/kg, (4) lactacystin 40 mg/kg and etoposide 33 mg/kg. […] Since start of the therapy, a size of the tumor lump was measured to measure effect of the therapy by administration of drugs once every 4 days. […]
The effect of therapy by simultaneous administration of the proteasome inhibiting agent, lactacystin, and the topoisomerase II-targeting anticancer, doxorubicin was examined. […] After start of treatment, once every 4 to 5 days, the size of the tumor lump was measured to measure the effect of treatment by drug administration.

The subject of test [2] is human colon adenocarcinoma cell HT-29. Description: Sensitivity of cells to anticancer drug by colony formation method (M phase-synchronized cells, with or without proteasome inhibiting agent). The class given is cell-based. Conditions: etoposide 5, 10, and 15 µg/ml, 1 hour, FIG. 1. The procedure:
In the glucose starvation environment found in the solid cancer, the effect of combined use of the proteasome inhibitor in a human colon adenocarcinoma cell HT-29 with the anticancer drug targeting topoisomerase II was tested.
Concerning culture media, for a culture condition in a normal state, RPMI 1640 medium (Nissui Pharmaceutical Co.-made) to which a 5% FBS (fetal bovine serum) was added and for the culture condition in the glucose starvation state symbolically found in the solid cancer, RPMI 1640 medium (Lifetech Oriental-made), lacking glucose, in which the 5% FBS was added were used, respectively. Culture was carried out using a CO2 incubator (Tabai Espec-made) under conditions of 5% CO2/95% air and humidity 100%.
In order to test sensitivity to the anticancer drug, the cell cycle synchronization culture methodwas employed. Nocodazol (Sigma made) was used to synchronize the cell cycle, cells in a logarithmic proliferation phase were treated with 40 ng/ml Nocodazol for 9 hours, and cells accumulated in cell division phase (Mpahse) were collected by gentle pipetting. M phase-synchronized cells collected through these steps were washed with PBS (phosphate buffered saline) followed by inoculation of 1×10^5 cells per well of 12 well-culture plate.
M phase-synchronized cells were cultured under the normal condition and the glucose starvation condition to conduct treatments with the proteasome inhibiting agent and the anticancer drug as follows. For cells under the glucose starvation condition, the culture medium, to which the proteasome inhibiting agent and the protease inhibiting agent not inhibiting proteasome were added as the control group, and the culture medium, to which no inhibiting agent has been added, was used. For cells under the normal condition, the culture medium, to which each inhibiting agent was not added, was used. After inoculation of cells, culture was carried out for 13 hours in each culture medium. […]
Sensitivity of cells to the anticancer drug was measured using the colony formation method. As described above, cells treated with the proteasome inhibiting agent and the anticancer drug were washed with PBS followed by soaking in trypsin (Lifetech Oriental made) solution and removed from a culture dish to suspend in an ordinary culture medium. These cells were inoculated again in 500 to 5000 cells for a 10 cm culture dish and cultured for 10 to 12 days to form a colony. The colony formed was fixed by 10% formaldehyde solution and stainedwith 0.01% crystal violet (Wako Pure Chemicals made) solution. Number of colony was counted and a Cell survival rate was calculated assuming that the number of colonies untreated with the anticancer drug is 1.
For reference, the proteasome inhibiting agent and the protease inhibiting agent not inhibiting proteasome used as described above were as follows. • (1) Proteasome inhibiting agent • . […] MG115 (carbobenzoxy-L-Leucyl-L-Leucyl-L-Norvalinal): final concentration 2.5 µM (Peptide Institute Inc. made) • . MG132 (carbobenzoxy-L-Leucyl-L-Leucyl-Leucinal) : final concentration 2.5 µM (Peptide Institute Inc. made) • . Lactacystin, final concentration 10 µM (Kindly supplied from The Kitasato Institute made) • (2) Protease inhibiting agent not inhibiting proteasome • . E64, final concentration 25 µM (Peptide Institute Inc. made) • . ZLLal (carbobenzoxy-L-Leucyl-L-Leucinal): final concentration 25 µM (Peptide Institute Inc. made)
The cell culture condition for both M phase-synchronized culture method and culture under the glucose starvation condition was as described in Example 1. M phase-synchronized cells were cultured in the culture medium, to which lactacystin of the final concentration 10 µM was added, or the culture medium, to which this was not added, as the proteasome inhibiting agent under the ordinary condition and the glucose starvation condition, respectively, for 13 hours. […]

`CC(C)[C@H](O)[C@@]12NC(=O)[C@H](C)[C@@H]1OC2=O` [activated type of lactacystin, clasto-lactacystin β lactone]: the “amount of expression of topoisomerase I” value with topoisomerase I is given as “does not change”. For the same compound, in the test on topoisomerase IIα, the “amount of expression of topoisomerase IIα” value is given as “the lowering of expression is perfectly inhibited”.
Take `COc1cc([C@@H]2c3cc4c(cc3[C@@H](O[C@@H]3O[C@@H]5CO[C@@H](C)O[C@H]5[C@H](O)[C@H]3O)[C@H]3COC(=O)[C@H]23)OCO4)cc(OC)c1O` [etoposide]: the “suppression of tumor proliferation (size of the tumor lump)” value in test [1] is listed as “less suppression of tumor proliferation”. Moreover, the “Cell survival (colony formation) with etoposide” value in test [2] (glucose starvation condition) is “cells showed resistance against etoposide to survive”; in test [2] (ordinary culture condition) it was “almost all HT29 cells died”.

The record behind these values is EP1153612A1, “ANTICANCER AGENT POTENTIATORS” (Tsuruo, Takashi, priority 1999, dated 2000).
